From patent publication EP0032564A1, “Pharmaceutical use of caroverine and/or salts of caroverine, as well as salts of caroverine with xanthine acid remainders and nicotinic acid remainder” (MEDICHEMIE AG, priority 1979, dated 1981)
Counter-ions that a name gives are not always drawn.

What was measured:
[1] = tested on: glatten Coronar-Muskulatur; test: k-Strophanthin-induced tone of pig coronary smooth muscle; parameters: species or system Schwein; conditions: higher concentration of k-Strophanthin, partial restitution by raised extracellular Ca++ (Fig. 15)
Source text: Teilweise Restitution des Coronartonus durch Steigerung der extra-cellulären Ca^++-Konzentration.

Ca^++-Einstrom = test: Isolated guinea pig papillary muscle: intracellular action potentials and isometric mechanograms; parameters: species or system Meerschweinchen
Source text: Die Aktionspotentiale […] an ein und derselben Myocardfaser gewonnen. Die einzelnen Konzentrationen kamen jeweils für die Dauer von 40 Minuten zur Anwendung.

[2] = tested on: isolierte, nach Langendorff perfundierte Meerschweinchenherz; test: Isolated Langendorff-perfused guinea pig heart: coronary flow, contraction amplitude, heart rate; parameters: species or system Meerschweinchen; conditions: for Herzfrequenz: in all experiments; for Coronardurchfluss: single doses Caroverin 1-1000 ug, Theophyllin 10-1000 ug, 1000 Theophyllin about equal to 100 Caroverin
Source text: Meerschweinchen wurden durch Genickschlag getötet, der Thorax eröffnet, der Herzbeutel aufgeschnitten, die Aorta mit einem Faden angeschlungen und in der pars ascendens angeschnitten. Nach Einbinden einer Glaskanüle in die Aorta wurde die aorta pulmonalis eröffnet und anschliessend das Coronargefässsystem durch die Aortenkanüle unter leichten Druck mit einer Spitze durchgespült. Nach Dulchirennung aller anhängenden Gefässe wurde das Herz an der Aortenkanüle in die feuchte Kammer einer modifizierten Langendorff-Apparatur gehängt und mit carbogengesättigter Tyrodelösung von 37^uC mit einem Druck von 55 cm H20 perfundiert. An der Herzspitze wurde eine Serre fine angebracht, die über einen Faden mit einem zweiarmigen Hebel verbunden war, der die Kontraktionsamplitude auf einem Russkymographen aufzeichnete. Alle Herzen waren mit 4 g belastet. Der Schreibhebel passierte bei seinen Ausschlägen die Lichtschranke einer Fotozelle. Dadurch konnte die Herzfrequenz über einen Totalisator (nach FLEISCH, Firma B. Braun, Melsungen) registriert werden. Die aus dem rechten Vorhof frei abfliessende Perfusionslösung tropfte auf einen elektrischen Kontakt. Die Tropfenzahl wurde mittels eines zweiten Totalisators aufgezeichnet,und nach Eichung in ml/min der Coronardurchfluss bestimmt.
Nach Fertigstellung der Präparate wurde bis zum Versuchsbeginn 45 Min. gewartet. Nach dieser Zeit hatten Kontaktionsamplitude, Frequenz und Coronardurchblutung ein konstantes Niveau erreicht.
Caroverin wurde in Einzeldosen von 1, 10, 100 sowie 1000 ug verabreicht. Theophyllin wurde in Dosen von 10, 100 sowie 1000 ug gegeben. In allen Versuchen wurden Caroverin und Theophyllin abwechselnd verabreicht, wobei jeweils eine Zeitspanne von 5 Min. zwischen zwei Einzelinjektionen lag. Alle Injektionsvolumina betrugen 0.1 ml.
Die Effekte der Substanzen wurden ermittelt,indem in jedem Versuch bei jeder Einzeldosis die maximalen Zu- bzw. Abnahmen der entsprechenden Parameter gegenüber dem jeweiligen Ausganswert bestimmt und diese Einzeleffekte gemittelt wurden. Statistische Signifikanzberechnungen erfolgten nach dem t-Test (student's-Test).

[3] = tested on: K^+-Kontraktur isolierter Coronararterienstreifen; test: K+ contracture of isolated pig coronary artery strips; parameters: species or system Schwein
Source text: Partielle Restitution der mechanischen Spannungsentwicklung durch Extra-Calcium.

Agonisten (Atropin) = test: Anticholinergic effect in vitro, guinea pig; parameters: species or system Meerschweinchen; conditions: 10 µg/ml
Procedure: In vitro ergab sich am Meerschweinchen mit einer Dosis von 10 µg/ml eine mehr als 80 %ige Hemmung des verwendeten Agonisten (Atropin).

Maus = test: Acute toxicity in the mouse (new caroverine salts); format: in vivo; conditions: for Akute Toxizität, observation: in vivo; for Letale Dosis: mouse, i.p.
Procedure: Letale Dosis: • 200 mg/kg i.p..

Thrombozytenaggregation [4] = test: Collagen-induced platelet aggregation in platelet-rich plasma, turbidimetry; format: cell-based, Kaninchen
Source text: Thrombozytenreiches Plasma wurde aus citriertem Kaninchenblut gewonnen. Die Thrombozytenaggregation wurde durch Collagen aus Rinder- Achillessehnen induziert, worauf der Aggregations-Hemmeffekt durch optische Trübungsmessung (Turbidimetrie) untersucht und quantifiziert werden konnte.
Bei diesen Diagrammen handelt es sich um Aufnahmen des zeitlichen Verlaufes einer optischen Messgrösse als Mass eines durch das Präparat tretenden Lichtanteils, entsprechend einem reziproken Mass für den Agglutinations- oder Aggregationsgrad. Die verschiedenen Messkurven für je eine Wirksubstanz entsprechen unter- schiedlichen molaren Konzentrationen in Mikromol des Wirkstoffes als Parameter. Die erste Messkurve in Fig. 1 entspricht einem Kontroll-Leerversuch.

Ratten = test: Diuretic effect in rats, method of Lipschitz et al. (Na excretion score); format: in vivo; conditions: 20 mg/kg p.os, quotient of Na excretion after test substance to Na excretion of control
Source text: Diese Untersuchung an Ratten wurde nach der Methode von Lipschitz et al., j.p.e.t. 79, 97-110, 1954, durchgeführt.
Der errechnete Score entspricht einem Quotienten aus Na-Ausscheidungen nach der Testsubstanz durch Na-Ausscheidung des Kontroll-Leerwertes.
Die Untersuchung an Ratten wurde wie unter 1. durchgeführt. Für den diuretischen Wirkungs-Score gilt gleiches.

[5] = tested on: Meerschweinchen-Lungenpräparat; test: Bronchodilator effect on guinea pig lung preparation (perfusion flow rate); conditions: in vitro, 100 µg/ml
[6] = tested on: Patienten mit Arrhythmia absoluta
Procedure: Bei insgesamt 6 Patienten (5♀, 1 ♂) mit Arrhythmia absoluta wurden innerhalb 3 - 5 Min. 200 mg Caroverinfumarat i.v. verabreicht. […] Mittleres Alter der Probanden war 65 (+6/-11) Jahre. Registriert wurden EKG (Frequenz) und Blutdruck (Riva-Rocci) bis max. 13 Minuten nach Injektionsbeginn. Die Min.-Frequenz ermittelte sich aus 10 aufeinanderfolgenden QRS-Komplexen.

Hunden = test: Coronary sinus outflow, systemic blood pressure and heart rate in dogs; format: in vivo; conditions: dogs, 0,03-3,0 mg/kg, effect increases with dose (Fig. 4-6)
Procedure: Es wurde der coronare Sinus-Ausfluss(CSF), der System-Blutdruck (SEP) und die Herzfrequenz (HR) an Hunden untersucht. Für den coronaren Sinus-Ausfluss wurde die in Clin. Pharmacol. Physiol., 5, 107 - 115, 1978, Australien,beschriebene Untersuchungsmethode angewendet.
Zeitdiagramme der genannten Messgrössen SBP (mmHg), CSF (ml/min) und HR (min ) wurde für […] verschiedene Dosierungen von Caroverinfumarat, nämlich 0,03, 0,1, 0,3, 1,0 und 3,0 mg/kg (bezogen auf das Körpergewicht) aufgenommen. Die Diagramme für die drei erstgenannten Dosierungswerte sind in Fig. 4 und diejenigen für die beiden letztgenannten Dosierungswerte in Fig. 5 bzw. Fig. 6 wiedergegeben. Der Zuführungszeitpunkt der Wirksubstanz ist in den Diagrammen gemäss Fig. 4 durch das Zeichen "o" markiert, während in den Diagrammen gemäss Fig. 5 und 6 das Zuführungsintervall jeweils durch einen Horizontalstrich unterhalb der CSF-Messkurve angegeben ist.

Herzfrequenz = test: Clinical study: heart rate under stepwise i.v. dosing, treatment groups A, B, C; format: in vivo, Menschen
Source text: • a) Anzahl: je 6 Patienten der Gruppen A, B und C. Die Probandenzahl der Gruppe D hängt davon ab […] hoc finden. • b) Die […] des Prüfers. • c) Kontraindikationen […], die nicht für eine klinische Studie mit Ca-Antagonisten geeignet sind, oder unter […] leiden, die die Resultate […]. Die […] 10 und 5' vor Beginn der Medikation. […] Nach Beendigung der Medikation, Nachkontrolle in 10-[…] bis ca. 4 Stunden nach Beginn der Medikation. Abbruch der Medikation bei: • 1) AV-Block 1. […] In einem ersten Schritt wurden die Zeitreihen (Herzfrequenz-Mittelwerte und Streuungen) je Behandlungsgruppe einzeln berechnet und graphisch dargestellt (s. Abbildung und […], die […] auch […] und der 3 Stunden Nachbeobachtung unterscheiden. Es ist ebenfalls festzuhalten, dass die Werte zu Beginn der Applikation gegenüber den Vorwerten durchwegs erhöht sind. Um die Herzfrequenz-Verläufe […] zu […] Differenzen der Mittelwerte zu jedem […] zu den Vorwerten als auch zum Wert bei […] und […] - unter […] und […] - auf Signifikanz geprüft.

[7] = Acute toxicity (LD50) in male mice; conditions: mouse, in vivo
Source text: Untersuchung der akuten Toxizität an männlichen Mäusen
Es wurden folgende Standard-Grenzwerte LDSO (mg/kg) ermittelt:
Toxizitätsuntersuchung an männlichen Mäusen

[8] = tested on: anemische Decerebrationsstarre; test: Inhibition of anemic decerebrate rigidity in rats, method of Fukuda et al.; format: in vivo, Wister-Ratten; conditions: male rats, i.v.; for ED50: Rattus norvegicus, iv, read-out: Dosis für 50%ige Inhibierung; for ED50 / Zeit für 50%ige Erholung: anemic decerebrate rigidity
Source text: Die Untersuchungen wurden ausgeführt nach der Methode von Fukuda et al. (Japanese Journal of Pharmacology, Band 24, Seiten 810 - 813, 1974).
Es wurden männliche Wister-Ratten mit einem Köpergewicht von 280 - 380 g verwendet. Die Tiere wurden mit Aether betäubt und am Rücken befestigt. Nach Freilegen der Luft- und Speiseröhre sowie der beiderseitigen, gemeinsamen Carotisarterien wurde die Luftröhre kanüliert und die Speiseröhre abgetrennt. Das Hinterhauptbein wurde durch Abschaben der anhängenden Muskulatur freigelegt. Nach beidseitigem Abbinden der gemeinsamen Carotisarterien wurde im mittleren Teil des Hinterhauptbeines eine Oeffnung von 5 mm Durchmesser trepaniert, um die Basilararterie sichtbar zu machen. Die dura mater wurde längs der Basilararterie durchschnitten und letztere mit einem Coagulator ausgeätzt. Unmittelbar nach Beendigung dieser Massnahmen wurde die Anästhesie unterbrochen. Innerhalb von 30-min entwickelte sich Starre, und es trat eine deutliche Streckung der Extremitäten, des Nackens und des Schwanzes ein. Die Streckung der Vordergliedmassen wurde mit einem Dehnungsmessstreifen erfasst. 50 min nach Erholung von der Betäubung wurden in Salzlösung aufgelöste Pharmaka durch eine in die Oberschenkelvene eingeführte Kanüle intravenös zugeführt. Die verwendeten Pharmaka waren Caroverinfumarat und Referenz-Agenzien, nämlich Mephenesin und Tolperison-Hydrochlorid. Das Ergebnis nach Zuführung von 2 mg/kg Caroverinfumarat sind in der nachstehend eingefügten Tabelle wiedergegeben.

Thrombozytenaggregation [9] = test: Collagen-induced platelet aggregation, same method on human blood preparations; format: cell-based, menschlichem Blut; conditions: same method as with rabbit plasma
[10] = group B, ca. 70 min after start of application
[11] = group C, 2 1/2 to 3 h after start of application

Compound: CCN(CC)CCn1c(=O)c(Cc2ccc(OC)cc2)nc2ccccc21 [Caroverin, 1-(2-diäthylaminoäthyl)-3-(p-methoxybenzyl)-1,2-dihydroquinoxalon-2]
- tonussteigernde Effekte von k-Strophanthin [1]: Neutralisation der tonussteigernden Effekte
- elektrische Parameter Ca^++-getragener Aktionspotentiale (AP-Amplitude, max. Aufstrichsteilheit, AP-Dauer) und zugehörige Mechanogramme (Ca^++-Einstrom; about the same concentration range (10 mg/l)): hemmt
- Blockade des Ca^++-Einstroms während der Erregung (Ca^++-Einstrom; electrically stimulated isolated guinea pig papillary muscle, 10 mg Caroverin/l (Fig. 12)): ~50%
- transmembranäre Na- und K^+-Fluxe (Ca^++-Einstrom; isolated guinea pig papillary muscle, 10 mg Caroverin/l): ohne die transmembranären Na - und K^+-Fluxe zu reduzieren
- Herzfrequenz ([2]; 100 µg): langanhaltenden frequenzsenkenden Effekt
- Kontraktionsamplitude ([2]; 100 µg, p < 0.01): verminderte die Kontraktionsamplitude signifikant
- Coronardurchfluss [2]: dosisabhängige, coronardurchflusssteigernde Wirkung
- inhibition at 0.25 µg/mL ([3]; Sus scrofa, pig, 0,25 mg Caroverin/l (Fig. 13 and 14), read-out: elektromechanische Entkoppelung K^+-depolarisierter Coronararterienstreifen): ~50%
- K^+-Kontraktur isolierter Coronararterienstreifen ([3]; pig, rising concentrations 0,05, 0,1 and 0,5 mg/l, partial restitution by extra calcium (Fig. 13)): Hemmungen der K^+-Kontraktur
- K^+-Kontraktur isolierter Coronararterien-Streifen ([3]; pig, rising concentrations 1,0, 2,0 and 5,0 mg/l, partial restitution by extra calcium at 1 mg/l (Fig. 14)): Hemmung der K^+-Kontraktur

Compound: CCN(CC)CCn1c(=O)c(Cc2ccc(OC)cc2)nc2ccccc21 [Caroverin-Nicotinat]
- Hemmung des verwendeten Agonisten (Atropin) (Agonisten (Atropin)): > 80%
- Akute Toxizität, observation (Maus; 300 mg/kg): keine Auffälligkeiten
- Akute Toxizität, observation (Maus; ip, 100 mg/kg): Abnahme des Muskeltonus in den Extremitäten, sowie eine leichte Abnahme des Haltegriffes
- Letale Dosis (Maus): 200 mg/kg
- inhibition at 10 µg/mL (Thrombozytenaggregation [4]; Oryctolagus cuniculus, Platelet, in vitro, rabbit, 10 mcg/ml, read-out: Hemmung der collagen-induzierten Plättchenaggregation): 100%
- diuretischer Wirkungs-Score (Ratten; 20 mg/kg): 2.6
- Perfusions-Fliessrate [5]: eindeutige Zunahme der Perfusions-Fliessrate

Compound: CCN(CC)CCn1c(=O)c(Cc2ccc(OC)cc2)nc2ccccc21 [Caroverin-Theophyllinat]
- Hemmung des verwendeten Agonisten (Atropin) (Agonisten (Atropin)): > 80%
- Akute Toxizität, observation (Maus; 300 mg/kg): keine Auffälligkeiten
- Akute Toxizität, observation (Maus; ip, 100 mg/kg): leichte Muskelrelaxation
- Letale Dosis (Maus): 200 mg/kg
- diuretischer Wirkungs-Score (Ratten; 20 mg/kg): 2.8
- Perfusions-Fliessrate [5]: eindeutige Zunahme der Perfusions-Fliessrate

Compound: CCN(CC)CCn1c(=O)c(Cc2ccc(OC)cc2)nc2ccccc21 [Caroverinfumarat]
- Vorhofflimmer-Frequenz ([6]; 6 patients, 200 mg i.v.): ohne messbare Veränderung
- rhythmisierender Effekt ([6]; 6 patients, 200 mg i.v.): nicht nachgewiesen
- maximale systolische Blutdruckabfall ([6]; 6 patients, 200 mg i.v. within 3-5 min): 29,3 (+ 8,2/-9,3) %
- diastolische Blutdruckabfall ([6]; mean of 6 patients, 200 mg i.v. within 3-5 min): 26,6 (+ 10,9/-11,6) %
- maximale Frequenz-Abfall im Vergleich zum Ausgangswert ([6]; mean of 6 patients, 200 mg i.v. within 3-5 min, up to 13 min after start of injection): 26,6 (+ 7,2/-4,7) %
- Aggregations-Hemmeffekt (Thrombozytenaggregation [4]; rabbit platelet-rich plasma, collagen from bovine Achilles tendon, several micromolar concentrations (Fig. 1-3), intensity between Benzyclanfumarat and Aspirin): eindeutigen Hemmungseffekt
- Herzfrequenz (HR) (Hunden): Herabsetzung der Herzfrequenz
- System-Blutdruck (SBP) (Hunden): Herabsetzung des System-Blutdrucks
- coronarer Sinus-Ausfluss (CSF) (Hunden): Rasch zunehmende und langsam abklingende Zunahme des coronaren Sinus-Ausflusses
- mittlere Herzfrequenz, % of value before application (Herzfrequenz; group A (heart-healthy), end of application after 40 min): 86%
- mittlere Herzfrequenz (Herzfrequenz; group A (heart-healthy), end of application after 40 min, 20 mg i.v. then 10 mg every 4 min up to 120 mg, baseline 72/Min.): 62 min⁻¹
- mittlere Herzfrequenz, % of value before application (Herzfrequenz; group A, 2 h after start of application): 79%
- mittlere Herzfrequenz (Herzfrequenz; group A, 2 h after start of application, lasting to end of 4 h observation): 57 min⁻¹
- mittlere Herzfrequenz, % of value before application (Herzfrequenz; group B (coronary heart disease), end of application): 90%
- mittlere Herzfrequenz (Herzfrequenz; group B (coronary heart disease), end of application, baseline 77/Min.): 69 min⁻¹
- mittlere Herzfrequenz (Herzfrequenz; [10]): 65 min⁻¹
- mittlere Herzfrequenz, % of value before application (Herzfrequenz; [10]): 84%
- mittlere Herzfrequenz, % of value before application (Herzfrequenz; group C (diseased conduction system), end of application): 86%
- mittlere Herzfrequenz (Herzfrequenz; group C (diseased conduction system), end of application, baseline 66/Min.): 57 min⁻¹
- mittlere Herzfrequenz (Herzfrequenz; [11]): 54 min⁻¹
- mittlere Herzfrequenz, % of value before application (Herzfrequenz; [11]): 82%
- LD50 ([7]; intravenous): 39 mg/kg
- LD50 ([7]; ip, intraperitoneal): 138 mg/kg
- LD50 ([7]; oral): 800 mg/kg
- ED50 [8]: 1.5 mg/kg
- Zeit für 50%ige Erholung [8]: > 30 min
- anemische Decerebrationsstarre ([8]; stronger and longer lasting than Tolperison-Hydrochlorid and Mephenesin): unverzüglich aufgehoben
- Aggregations-Hemmeffekt (Thrombozytenaggregation [9]): Aehnliche Ergebnisse

Compound: Cc1ccccc1OCC(O)CO (centres unmarked) [Mephenesin]
- ED50 [8]: 25 mg/kg
- Zeit für 50%ige Erholung [8]: ca 13 min.

Compound: CC(=O)S[C@@H]1CC2=CC(=O)CC[C@]2(C)[C@H]2CC[C@@]3(C)[C@@H](CC[C@@]34CCC(=O)O4)[C@H]12 [Spironolacton, reference compound]
- diuretischer Wirkungs-Score (Ratten): 3.6

Compound: Cn1c(=O)c2[nH]cnc2n(C)c1=O [Theophyllin, reference compound]
- Herzfrequenz ([2]; 1000pg as printed): die Herzfrequenz vorübergehend steigerte
- Kontraktionsamplitude ([2]; doses used (10, 100, 1000 ug)): keine signifikanten Aenderungen der Kontraktionsamplitude
- Coronardurchfluss [2]: steigernde Wirkung auf den Coronardurchfluss

Compound: Cc1ccc(C(=O)C(C)CN2CCCCC2)cc1 (centres unmarked) [Tolperison-Hydrochlorid]
- ED50 [8]: 4 mg/kg
- Zeit für 50%ige Erholung [8]: ca. 10 min.
